Experimental data published in ChEMBL document CHEMBL1201862, “PubChem BioAssay data set” (2004).
Calls of active or inactive are those of the source.

How the values were obtained:
[1] = target: T1, Fructose-bisphosphate aldolase (Mycobacterium tuberculosis, UniProt P9WQA3); assay: Fluorescence-based biochemical high throughput dose response assay for inhibitors of the fructose-bisphosphate aldolase (FBA) of M. tuberculosis.; type: functional
T1 sequence (P9WQA3 whole entry): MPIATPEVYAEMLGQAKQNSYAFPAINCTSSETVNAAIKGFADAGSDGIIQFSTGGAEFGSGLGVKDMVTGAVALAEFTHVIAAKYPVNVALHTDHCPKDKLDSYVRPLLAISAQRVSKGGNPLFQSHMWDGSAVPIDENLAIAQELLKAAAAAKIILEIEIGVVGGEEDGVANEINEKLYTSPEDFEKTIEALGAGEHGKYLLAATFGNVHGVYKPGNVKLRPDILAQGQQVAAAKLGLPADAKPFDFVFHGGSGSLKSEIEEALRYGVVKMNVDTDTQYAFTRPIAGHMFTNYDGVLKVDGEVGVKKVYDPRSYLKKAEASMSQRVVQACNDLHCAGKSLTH

[2] = target: SWI/SNF-related matrix-associated actin-dependent regulator of chromatin subfamily A member 2 (Homo sapiens, UniProt P51531); assay: Luminescence-based cell-based high throughput dose response assay to identify activators of the function of SWI/SNF related, matrix associated, actin dependent regulator of chromatin, subfamily a, member 2 (SMARCA2, BRM).; type: functional
[3] = Counterscreen for activators of the function of SWI/SNF related, matrix associated, actin dependent regulator of chromatin, subfamily a, member 2 (SMARCA2, BRM): Luminescence-based cell-based high throughput dose response assay to identify non-selective compounds using the VP16 reporter assay.; type: functional
[4] = target: T2, Carboxy-terminal domain RNA polymerase II polypeptide A small phosphatase 1 (Homo sapiens, UniProt Q9GZU7); assay: inhibitors of CTDSP1, concentration-response testing, biochemical assay, absorbance-based, actives from ultra-high-throughput screening (AID 540297); type: functional
T2 sequence (Q9GZU7 whole entry): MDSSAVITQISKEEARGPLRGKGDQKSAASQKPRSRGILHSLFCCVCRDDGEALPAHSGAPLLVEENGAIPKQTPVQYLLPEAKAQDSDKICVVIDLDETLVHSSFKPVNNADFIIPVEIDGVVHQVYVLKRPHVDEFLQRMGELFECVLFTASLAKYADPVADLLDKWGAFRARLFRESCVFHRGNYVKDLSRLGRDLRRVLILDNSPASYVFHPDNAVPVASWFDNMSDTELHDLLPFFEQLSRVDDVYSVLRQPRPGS

Protein Tat = target: T3, Protein Tat (Human immunodeficiency virus type 1 group M subtype B (isolate HXB2)(HIV-1), UniProt P04608); type: functional;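 further: tat binding to TAR RNA read out by fluorescence polarization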
T3 sequence (P04608 whole entry): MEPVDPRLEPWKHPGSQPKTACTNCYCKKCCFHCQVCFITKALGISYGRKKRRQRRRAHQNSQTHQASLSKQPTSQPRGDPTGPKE

[5] = target: T4, Zinc finger protein mex-5 (Caenorhabditis elegans, UniProt Q9XUB2); assay: MEX-5/TCR-2 RNA interaction inhibitors, dose response, biochemical, C. elegans, fluorescence polarization (AID 1960)
T4 sequence (Q9XUB2 whole entry): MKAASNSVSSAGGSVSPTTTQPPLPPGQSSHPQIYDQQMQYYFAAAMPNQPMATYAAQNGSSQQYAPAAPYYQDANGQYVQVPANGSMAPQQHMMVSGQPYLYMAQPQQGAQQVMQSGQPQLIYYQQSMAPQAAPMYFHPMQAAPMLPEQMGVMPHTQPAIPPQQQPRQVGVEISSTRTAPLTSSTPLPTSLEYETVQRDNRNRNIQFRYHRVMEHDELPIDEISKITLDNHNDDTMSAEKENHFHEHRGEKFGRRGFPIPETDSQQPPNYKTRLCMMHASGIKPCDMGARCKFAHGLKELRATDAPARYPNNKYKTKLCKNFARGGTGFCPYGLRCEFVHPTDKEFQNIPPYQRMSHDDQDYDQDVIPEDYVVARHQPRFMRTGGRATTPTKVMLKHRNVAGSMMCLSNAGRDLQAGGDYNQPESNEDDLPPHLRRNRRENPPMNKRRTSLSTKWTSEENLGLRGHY

[6] = target: T5, RNA-binding protein pos-1 (Caenorhabditis elegans, UniProt G5EF15); assay: inhibitors of POS-1/mex-3 RNA binding, dose response, biochemical, fluorescence polarization (AID 1964);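 further: purified POS-1 fused to maltose binding protein made in E. coli; potency of compounds blocking POS-1 binding to fluorescent RNA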
T5 sequence (G5EF15 whole entry): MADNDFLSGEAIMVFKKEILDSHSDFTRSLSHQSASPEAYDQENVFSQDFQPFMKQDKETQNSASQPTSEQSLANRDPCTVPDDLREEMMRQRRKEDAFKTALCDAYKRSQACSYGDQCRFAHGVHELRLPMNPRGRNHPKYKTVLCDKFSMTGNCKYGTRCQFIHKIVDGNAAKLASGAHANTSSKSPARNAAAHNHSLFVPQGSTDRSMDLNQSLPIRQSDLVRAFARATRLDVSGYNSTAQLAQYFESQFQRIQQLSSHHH

[7] = target: DNA dC->dU-editing enzyme APOBEC-3G (Homo sapiens, UniProt Q9HC16); type: functional;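 further: Dose-response counterscreen measuring inhibition of APOBEC3G DNA deaminase activity, run while confirming APOBEC3A inhibitors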
Large T antigen = Large T antigen (Simian virus 40, UniProt P03070); type: functional, Betapolyomavirus macacae;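 further: Confirmatory-stage PubChem screen for compounds that inhibit SV40 T antigen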
[8] = target: DNA dC->dU-editing enzyme APOBEC-3A (Homo sapiens, UniProt P31941); assay: Dose Response confirmation of small molecule APOBEC3A DNA Deaminase Inhibitors via a fluorescence-based single-stranded DNA deaminase assay. [Related pubchem assays (depositor defined):AID493011, AID493024]; type: functional
[9] = target: T6, Rac GTPase-activating protein 1 (Homo sapiens, UniProt Q9H0H5); assay: MgcRacGAP GTPase-activating activity inhibitors, confirmation, biochemical, ADP Hunter fluorescence, primary and confirmatory (AID 624330); type: functional
T6 sequence (Q9H0H5 whole entry): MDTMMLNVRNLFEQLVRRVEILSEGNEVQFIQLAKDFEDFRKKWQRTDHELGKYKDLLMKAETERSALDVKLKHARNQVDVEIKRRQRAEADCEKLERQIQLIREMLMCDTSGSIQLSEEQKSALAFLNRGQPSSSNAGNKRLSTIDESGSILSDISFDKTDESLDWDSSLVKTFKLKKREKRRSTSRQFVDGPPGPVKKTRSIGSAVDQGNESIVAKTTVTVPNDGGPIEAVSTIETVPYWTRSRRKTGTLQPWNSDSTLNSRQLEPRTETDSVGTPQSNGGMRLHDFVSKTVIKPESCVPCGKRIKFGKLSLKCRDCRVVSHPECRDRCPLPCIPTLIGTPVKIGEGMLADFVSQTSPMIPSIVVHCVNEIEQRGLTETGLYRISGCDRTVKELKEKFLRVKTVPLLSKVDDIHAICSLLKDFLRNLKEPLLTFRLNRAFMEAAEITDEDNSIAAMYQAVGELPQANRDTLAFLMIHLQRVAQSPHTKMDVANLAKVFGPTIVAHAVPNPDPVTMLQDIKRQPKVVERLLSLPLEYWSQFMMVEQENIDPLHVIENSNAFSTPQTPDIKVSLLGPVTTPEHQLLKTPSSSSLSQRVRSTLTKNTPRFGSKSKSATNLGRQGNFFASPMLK

[10] = target: T7, Corticotropin-releasing factor receptor 2/Corticotropin-releasing factor-binding protein (Homo sapiens, UniProt P24387+Q13324); assay: activators of CRF receptor 2 with binding protein – uHTS hits, confirmation (AID 602473); type: functional; conditions: read-out: EC50_Mean
T7 sequence (Q13324 whole entry): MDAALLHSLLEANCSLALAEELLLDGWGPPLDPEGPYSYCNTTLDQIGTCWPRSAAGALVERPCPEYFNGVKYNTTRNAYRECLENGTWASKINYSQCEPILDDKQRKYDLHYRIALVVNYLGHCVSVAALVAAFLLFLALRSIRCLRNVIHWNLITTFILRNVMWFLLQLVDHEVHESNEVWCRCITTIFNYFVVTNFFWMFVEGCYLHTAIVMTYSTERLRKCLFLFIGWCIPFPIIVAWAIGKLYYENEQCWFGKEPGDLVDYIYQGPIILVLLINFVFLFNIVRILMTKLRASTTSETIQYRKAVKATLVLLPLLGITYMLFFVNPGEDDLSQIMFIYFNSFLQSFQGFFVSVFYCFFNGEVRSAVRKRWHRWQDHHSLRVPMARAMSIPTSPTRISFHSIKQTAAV
T7 sequence (P24387 whole entry): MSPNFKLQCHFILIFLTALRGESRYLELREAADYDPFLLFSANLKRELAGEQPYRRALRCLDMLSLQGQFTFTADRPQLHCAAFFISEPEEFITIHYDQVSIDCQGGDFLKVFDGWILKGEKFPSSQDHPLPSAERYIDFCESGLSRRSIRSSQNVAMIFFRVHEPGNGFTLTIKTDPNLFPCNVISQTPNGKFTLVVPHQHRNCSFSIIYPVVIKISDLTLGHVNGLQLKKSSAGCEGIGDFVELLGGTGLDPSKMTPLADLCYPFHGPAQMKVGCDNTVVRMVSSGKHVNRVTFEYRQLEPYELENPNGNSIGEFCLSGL

[11] = CRF-BP/CRF-R2 complex antagonists, dose response, cell-based, uHTS hits, 384-well (AID 651639); type: functional, Homo sapiens; conditions: read-out: IC50_Mean
[12] = target: T7, Corticotropin-releasing factor receptor 2/Corticotropin-releasing factor-binding protein; assay: Dose Response confirmation of uHTS hits for small molecule antagonists of the CRF-binding protein and CRF-R2 receptor complex.; type: functional; conditions: read-out: IC50_Mean
[13] = target: T8, Adenosylmethionine-8-amino-7-oxononanoate aminotransferase (Mycobacterium tuberculosis, UniProt P9WQ81); assay: Mycobacterium tuberculosis BioA enzyme inhibitor Measured in Biochemical System Using Plate Reader - 2163-02_Inhibitor_Dose_CherryPick_Activity.; type: functional, Mycobacterium tuberculosis UT205
T8 sequence (P9WQ81 whole entry): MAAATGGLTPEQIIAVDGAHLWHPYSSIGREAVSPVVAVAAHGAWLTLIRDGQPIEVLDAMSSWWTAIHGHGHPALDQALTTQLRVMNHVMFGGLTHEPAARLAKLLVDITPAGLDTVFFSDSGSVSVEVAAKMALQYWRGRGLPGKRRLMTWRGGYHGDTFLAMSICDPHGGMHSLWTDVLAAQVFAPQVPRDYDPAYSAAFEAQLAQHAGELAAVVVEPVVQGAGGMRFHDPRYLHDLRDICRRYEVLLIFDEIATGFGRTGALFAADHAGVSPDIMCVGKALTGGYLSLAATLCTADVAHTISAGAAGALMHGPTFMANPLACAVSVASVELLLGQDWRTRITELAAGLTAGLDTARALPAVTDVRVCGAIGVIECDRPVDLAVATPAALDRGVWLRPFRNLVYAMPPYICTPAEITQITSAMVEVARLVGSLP

[14] = control 3'UTR Renilla luciferase suppression, dose response, counter-screen for Shn3 inhibitor project, cell-based, Clone20-Shn3RL, cherry-picked (AID 624133); type: functional
[15] = Shn3 3'UTR reporter inhibitors, dose response, cell-based, Clone20 osteoblasts, firefly luciferase, cherry-picked (AID 624132); type: functional;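 further: firefly luciferase luminescence from reporter carrying the Shn3 3'UTR in osteoblasts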

Sequence of SWI/SNF-related matrix-associated actin-dependent regulator of chromatin subfamily A member 2 (P51531 whole entry): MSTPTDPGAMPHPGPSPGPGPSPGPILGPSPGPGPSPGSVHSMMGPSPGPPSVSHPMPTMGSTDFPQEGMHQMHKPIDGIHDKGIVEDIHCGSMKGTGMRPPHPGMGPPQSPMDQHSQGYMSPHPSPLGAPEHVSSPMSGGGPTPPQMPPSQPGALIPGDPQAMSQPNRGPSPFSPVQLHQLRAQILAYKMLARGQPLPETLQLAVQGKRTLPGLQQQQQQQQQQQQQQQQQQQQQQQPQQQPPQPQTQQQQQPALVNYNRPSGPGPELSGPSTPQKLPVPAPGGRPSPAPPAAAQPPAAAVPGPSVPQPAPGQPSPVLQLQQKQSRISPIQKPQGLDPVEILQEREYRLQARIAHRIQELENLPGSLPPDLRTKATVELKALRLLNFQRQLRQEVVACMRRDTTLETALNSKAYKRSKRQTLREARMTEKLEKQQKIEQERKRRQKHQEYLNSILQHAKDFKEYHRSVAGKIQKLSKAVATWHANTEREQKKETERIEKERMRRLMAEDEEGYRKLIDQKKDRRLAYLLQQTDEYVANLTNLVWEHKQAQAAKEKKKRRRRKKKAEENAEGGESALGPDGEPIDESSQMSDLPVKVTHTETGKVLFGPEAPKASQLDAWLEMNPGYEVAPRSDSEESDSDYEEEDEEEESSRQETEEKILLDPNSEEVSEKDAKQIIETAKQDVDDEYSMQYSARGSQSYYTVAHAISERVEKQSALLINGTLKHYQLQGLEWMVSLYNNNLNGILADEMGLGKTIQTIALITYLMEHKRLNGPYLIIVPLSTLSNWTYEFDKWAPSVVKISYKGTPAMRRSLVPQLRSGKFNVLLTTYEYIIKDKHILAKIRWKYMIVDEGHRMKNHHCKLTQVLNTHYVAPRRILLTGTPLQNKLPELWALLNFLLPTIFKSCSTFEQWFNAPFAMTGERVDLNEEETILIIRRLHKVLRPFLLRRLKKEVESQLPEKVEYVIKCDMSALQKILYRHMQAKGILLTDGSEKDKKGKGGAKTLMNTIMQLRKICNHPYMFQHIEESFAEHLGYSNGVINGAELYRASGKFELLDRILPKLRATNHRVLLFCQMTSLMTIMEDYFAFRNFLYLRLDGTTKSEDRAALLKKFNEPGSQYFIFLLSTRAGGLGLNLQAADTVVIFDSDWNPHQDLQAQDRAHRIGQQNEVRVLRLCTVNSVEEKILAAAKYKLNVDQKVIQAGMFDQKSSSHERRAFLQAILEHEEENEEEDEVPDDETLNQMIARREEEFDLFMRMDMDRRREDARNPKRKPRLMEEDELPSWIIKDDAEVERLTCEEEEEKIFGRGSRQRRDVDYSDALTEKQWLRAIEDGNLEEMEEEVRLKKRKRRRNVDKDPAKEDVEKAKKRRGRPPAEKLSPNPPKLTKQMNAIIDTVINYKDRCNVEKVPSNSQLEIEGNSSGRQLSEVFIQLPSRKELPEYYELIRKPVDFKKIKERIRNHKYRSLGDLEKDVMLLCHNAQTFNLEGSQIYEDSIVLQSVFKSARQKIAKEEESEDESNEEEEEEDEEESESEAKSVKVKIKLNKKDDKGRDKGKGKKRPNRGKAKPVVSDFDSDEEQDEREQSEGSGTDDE
Sequence of DNA dC->dU-editing enzyme APOBEC-3G (Q9HC16 whole entry): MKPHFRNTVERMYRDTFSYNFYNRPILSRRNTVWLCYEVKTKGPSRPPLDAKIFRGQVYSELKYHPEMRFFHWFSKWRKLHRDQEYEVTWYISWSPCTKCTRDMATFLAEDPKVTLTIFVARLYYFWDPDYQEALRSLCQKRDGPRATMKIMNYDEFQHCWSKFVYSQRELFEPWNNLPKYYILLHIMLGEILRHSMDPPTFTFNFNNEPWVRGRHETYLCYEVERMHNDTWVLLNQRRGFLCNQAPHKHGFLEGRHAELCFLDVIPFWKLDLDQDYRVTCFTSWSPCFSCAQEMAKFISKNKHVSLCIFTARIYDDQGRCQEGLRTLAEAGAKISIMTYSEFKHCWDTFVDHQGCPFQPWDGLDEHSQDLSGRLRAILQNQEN
Sequence of DNA dC->dU-editing enzyme APOBEC-3A (P31941 whole entry): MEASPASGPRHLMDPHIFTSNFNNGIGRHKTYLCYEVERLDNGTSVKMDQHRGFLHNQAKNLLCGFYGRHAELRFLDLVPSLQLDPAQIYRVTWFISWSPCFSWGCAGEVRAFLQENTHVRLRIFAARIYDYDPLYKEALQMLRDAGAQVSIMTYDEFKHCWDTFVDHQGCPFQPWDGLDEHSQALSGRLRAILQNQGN
Sequence of Large T antigen (P03070 whole entry): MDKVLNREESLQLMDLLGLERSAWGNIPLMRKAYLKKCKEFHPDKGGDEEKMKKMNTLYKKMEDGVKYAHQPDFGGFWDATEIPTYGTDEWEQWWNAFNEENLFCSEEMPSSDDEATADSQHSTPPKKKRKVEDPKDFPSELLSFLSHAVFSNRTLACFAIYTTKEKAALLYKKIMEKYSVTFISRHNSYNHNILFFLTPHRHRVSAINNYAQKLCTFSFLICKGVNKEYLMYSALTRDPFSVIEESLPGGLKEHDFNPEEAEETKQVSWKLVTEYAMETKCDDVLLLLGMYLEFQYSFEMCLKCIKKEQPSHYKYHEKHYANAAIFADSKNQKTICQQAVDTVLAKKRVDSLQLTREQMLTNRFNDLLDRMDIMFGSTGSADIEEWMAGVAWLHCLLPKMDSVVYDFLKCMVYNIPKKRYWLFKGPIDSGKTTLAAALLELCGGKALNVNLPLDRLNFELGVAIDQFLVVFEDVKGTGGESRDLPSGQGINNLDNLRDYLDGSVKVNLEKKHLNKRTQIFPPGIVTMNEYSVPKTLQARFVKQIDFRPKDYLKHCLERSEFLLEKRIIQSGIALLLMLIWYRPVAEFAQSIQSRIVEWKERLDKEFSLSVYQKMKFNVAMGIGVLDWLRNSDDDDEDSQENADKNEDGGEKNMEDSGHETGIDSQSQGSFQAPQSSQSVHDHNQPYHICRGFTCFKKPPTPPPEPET

Cc1cc(C)nc(SCc2nc3ncccn3c2Br)n1
IC50 [1]: 1.47 µM (active)

CC(=O)c1ccc(-c2cnc3c(NC=O)cc(-c4ccc(N5CCN(C)CC5)cc4)cn23)cc1
EC50 [2]: 56 µM (inactive) | EC50 [3]: > 91.2 µM (inactive)

CCN(CC)C(=O)CSc1nnc(-c2cccc(OC)c2)o1
EC50 [2]: > 91.1 µM (inactive) | EC50 [3]: > 91.1 µM (inactive)

N#Cc1ccccc1CN1C(=O)S/C(=C/c2cccn2-c2cccc(C(=O)O)c2)C1=O
IC50 [4]: 5.19 µM (active) | IC50 (Protein Tat): > 100 µM (active) | EC50 [5]: > 300 µM (not active) | EC50 [6]: > 300 µM (not active) | IC50 [7]: 37 µM (active) | IC50 (Large T antigen): > 100 µM (active) | IC50 [8]: 14.9 µM (active)

O=C(Nc1ccc(O)cc1)c1cccc(Oc2ccc([N+](=O)[O-])cc2)c1
IC50 [9]: 41.8 µM (active) | EC50 [10]: > 53 µM (inactive) | IC50 [11]: > 20 µM (inactive) | IC50 [12]: 25.9 µM (active)

COCCNC(=O)c1ccc(CS(=O)(=O)c2c(Cl)cccc2Cl)o1
IC50 (Protein Tat): > 100 µM (active)

CC(=O)c1ccc(NC(=O)C2CC(=O)N(Cc3ccccc3)C2)cc1 (stereo unspecified)
AC50 [13]: 5.19 µM (active)

COc1ccc(C(=O)NC(Oc2ccccc2)C(Cl)(Cl)Cl)cc1 (stereo unspecified)
EC50 [10]: > 53 µM (inactive) | IC50 [11]: 14.5 µM (active) | IC50 [12]: 5.81 µM (active)

CS(=O)(=O)c1ccc(C(=O)OCC(=O)N2CCOCC2)cc1[N+](=O)[O-]
EC50 [2]: > 91.2 µM (inactive) | EC50 [3]: > 91.2 µM (inactive) | AC50 [14]: 27.9 µM (active) | AC50 [15]: 17.5 µM (active)

O=C(c1ccc(=O)oc1)N1CCCc2ccccc21
IC50 (Protein Tat): 5.02 µM (inconclusive)
